Measured values published in BindingDB's records for patent US20240226107 (Simcere Zaiming Pharmaceutical Co., 2024).

What was measured:
Assay in all cases: Assay for Inhibition of Compounds Provided in the Present Application on CYP Enzymes
[1] = molecular target: Cytochrome P450 2C19 (Homo sapiens, UniProt P33261)
Procedure: (§1) Typical substrate metabolic responses of five major human CYP subtypes (CYP1A2, CYP2C9, CYP2C19, CYP2D6, CYP3A4) were evaluated using 150-donor pooled human liver microsomes (purchased from Corning, Cat. No.: 452117). The influence of different concentrations of each compound to be tested on metabolic responses of phenacetin (CYP1A2), diclofenac sodium (CYP2C9), S-mephenytoin (CYP2C19), bufuralol hydrochloride (CYP2D6), and midazolam (CYP3A4) was determined by liquid chromatography-mass spectrometry (LC/MS/MS). The reaction system (200 μL) (100 mmol/L phosphate buffer, pH 7.4, containing DMSO, acetonitrile and methanol at a volume ratio of 0.3%:0.6%:0.1%) of 30 μM phenacetin, 10 μM diclofenac sodium, 35 μM S-mephenytoin, 5 μM bufuralol hydrochloride, 3 μM midazolam, 1 mM reduced nicotinamide adenine dinucleotide phosphate (NADPH), the compound to be tested (at concentrations of 0.1, 0.3, 1, 3, 10, 30 μmol/L, respectively), or positive compound or blank control, with pooled human liver microsomes (0.2 mg/mL) was incubated at 37° C. for 5 min. Then 200 μL of acetonitrile solution containing 3% formic acid and 40 nM internal standard verapamil was added and centrifuged at 4000 rpm for 50 min. The mixture was cooled on ice for 20 min and centrifuged at 4000 rpm for 20 min to precipitate the protein. Then 200 μL of supernatant was analyzed by LC-MS/MS.The peak area was calculated from the chromatogram.

[2] = molecular target: T1, Cytochrome P450 1A2 (Homo sapiens, UniProt P05177)
T1 sequence (P05177 whole entry): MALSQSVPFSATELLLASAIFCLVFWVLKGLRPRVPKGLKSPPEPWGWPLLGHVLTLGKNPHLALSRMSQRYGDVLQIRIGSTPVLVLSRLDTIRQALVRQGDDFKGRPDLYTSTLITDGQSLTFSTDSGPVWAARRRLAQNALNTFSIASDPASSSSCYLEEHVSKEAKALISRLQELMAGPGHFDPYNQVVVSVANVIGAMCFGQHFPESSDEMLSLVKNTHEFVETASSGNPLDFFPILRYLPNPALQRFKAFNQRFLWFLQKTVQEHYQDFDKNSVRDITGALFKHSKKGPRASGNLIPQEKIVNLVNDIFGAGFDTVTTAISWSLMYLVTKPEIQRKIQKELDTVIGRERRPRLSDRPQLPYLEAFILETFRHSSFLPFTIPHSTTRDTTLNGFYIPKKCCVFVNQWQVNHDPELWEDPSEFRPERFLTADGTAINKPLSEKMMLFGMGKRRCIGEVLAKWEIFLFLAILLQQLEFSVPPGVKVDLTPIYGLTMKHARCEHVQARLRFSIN
Procedure: as §1

[3] = molecular target: Cytochrome P450 2C9 (Homo sapiens, UniProt P11712)
Chain of Cytochrome P450 2C9 (P11712 whole entry): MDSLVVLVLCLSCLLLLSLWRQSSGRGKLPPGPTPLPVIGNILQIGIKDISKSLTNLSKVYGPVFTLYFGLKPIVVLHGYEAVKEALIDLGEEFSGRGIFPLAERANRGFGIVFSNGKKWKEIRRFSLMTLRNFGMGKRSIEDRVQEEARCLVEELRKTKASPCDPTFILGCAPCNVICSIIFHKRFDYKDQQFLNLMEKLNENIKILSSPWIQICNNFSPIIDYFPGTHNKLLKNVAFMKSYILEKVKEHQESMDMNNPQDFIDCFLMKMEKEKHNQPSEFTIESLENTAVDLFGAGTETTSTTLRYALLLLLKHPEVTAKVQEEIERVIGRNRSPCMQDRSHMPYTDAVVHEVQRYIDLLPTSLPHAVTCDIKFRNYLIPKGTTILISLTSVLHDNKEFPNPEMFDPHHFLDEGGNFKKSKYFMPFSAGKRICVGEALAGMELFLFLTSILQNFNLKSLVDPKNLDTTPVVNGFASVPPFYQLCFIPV
Procedure: as §1

Chain of Cytochrome P450 2C19 (P33261 whole entry): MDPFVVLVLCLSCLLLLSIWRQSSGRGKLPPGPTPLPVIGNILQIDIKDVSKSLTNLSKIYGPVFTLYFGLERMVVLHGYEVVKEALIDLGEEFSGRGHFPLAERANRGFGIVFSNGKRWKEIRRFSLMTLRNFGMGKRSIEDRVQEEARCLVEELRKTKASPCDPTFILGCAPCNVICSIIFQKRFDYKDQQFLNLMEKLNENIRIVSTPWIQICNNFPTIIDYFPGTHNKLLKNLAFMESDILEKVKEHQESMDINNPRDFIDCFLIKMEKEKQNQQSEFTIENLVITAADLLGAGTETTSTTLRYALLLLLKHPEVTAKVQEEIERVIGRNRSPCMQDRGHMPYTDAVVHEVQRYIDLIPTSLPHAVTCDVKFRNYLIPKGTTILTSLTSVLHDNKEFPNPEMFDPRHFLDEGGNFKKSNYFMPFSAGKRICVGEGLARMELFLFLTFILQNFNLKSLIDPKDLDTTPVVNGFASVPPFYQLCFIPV

IC50 [1]: 17.1 µM
IC50 [2]: > 30 µM
IC50 [3]: 28.9 µM
Compound: COc1nccc(C2CC2)c1-c1ncc2c(n1)N(Cc1ccc(-c3nc(C(F)(F)F)cn3C)cc1)CC(=O)N2C [US20240226107, Compound 11]
